According to patent US20260365682A1, “MODULATORS OF TNF-ALPHA ACTIVITY” (Forward Therapeutics, Inc., priority 2022, published 2026):

Molecular target: T1, TNF-α (Homo sapiens, UniProt P01375)
T1 construct: purchased R&D 210-TA-020/CF
Test: TNF-α Induced HEK Blue Cellular Assay (secreted alkaline phosphatase expression, QUANTI-Blue)
Format: cell-based
Details: HEK Blue TNFα reporter cells; TNF-α 100 μg/ml; 24 hrs at 37° C.; inhibition of secreted alkaline phosphatase; read-out: IC50 value
Outline: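 HEK Blue TNFα reporter cells (10,000/well) in DMEM with 10% FBS received compound ([…] to 0.5 nM final) and TNF-α at […] final for 24 h at 37° C. Secreted alkaline phosphatase read with QUANTI-Blue at 620 nm. IC50 came from a 4-parameter logistic fit after normalising to unstimulated and stimulated DMSO controls.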

T1 sequence (P01375 77-233 limits assumed): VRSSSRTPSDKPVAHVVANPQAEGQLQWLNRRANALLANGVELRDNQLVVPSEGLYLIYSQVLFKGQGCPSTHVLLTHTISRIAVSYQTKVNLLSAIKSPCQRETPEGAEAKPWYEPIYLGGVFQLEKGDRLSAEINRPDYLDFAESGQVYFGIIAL

Compound	IC50 [nM]
[2H]C([2H])([2H])N1C(=O)c2cccc(OC(F)F)c2[C@H]2C[C@@H]1c1nc3ccc(C#CCOC4CCNCC4)cc3n12 [Example 117, (7R,14R)-1-(difluoromethoxy)-6-(methyl-d3)-11-(3-(piperidin-4-yloxy)prop-1-yn-1-yl)-6,7-dihydro-7,14-methanobenzo[f]benzo[4,5]imidazo[1,2-a][1,4]diazocin-5(14H)-one]	100 to 1000
[2H]C([2H])([2H])N1C(=O)c2cccc(OC(F)F)c2[C@H]2C[C@@H]1c1nc3ccc(C#CC(C)(C)CO)cc3n12 [Example 191, (7R,14R)-1-(difluoromethoxy)-11-(4-hydroxy-3,3-dimethylbut-1-yn-1-yl)-6-(methyl-d3)-6,7-dihydro-7,14-methanobenzo[f]benzo[4,5]imidazo[1,2-a][1,4]diazocin-5(14H)-one]	10000 to 30000
[2H]C([2H])([2H])N1C(=O)c2cccc(OC(F)F)c2[C@H]2C[C@@H]1c1nc3ccc(C#CC4CN(C(=O)C(C)(C)O)C4)cc3n12 [Example 126, (7R,14R)-1-(difluoromethoxy)-11-((1-(2-hydroxy-2-methylpropanoyl)azetidin-3-yl)ethynyl)-6-(methyl-d3)-6,7-dihydro-7,14-methanobenzo[f]benzo[4,5]imidazo[1,2-a][1,4]diazocin-5(14H)-one]	< 100
[2H]C([2H])([2H])N1C(=O)c2cccc(OC(F)F)c2[C@H]2C[C@@H]1c1nc3ccc(C#Cc4cn(C)nc4C#N)cc3n12 [Example 20, 4-(((7R,14R)-1-(difluoromethoxy)-6-(methyl-d3)-5-oxo-5,6,7,14-tetrahydro-7,14-methanobenzo[f]benzo[4,5]imidazo[1,2-a][1,4]diazocin-11-yl)ethynyl)-1-methyl-1H-pyrazole-3-carbonitrile]	< 100
[2H]C([2H])([2H])N1C(=O)c2cccc(OC(F)F)c2[C@H]2C[C@@H]1c1nc3ccc(C#CC4CC(N)C4)cc3n12 (stereo partly drawn) [Example 113, (7R,14R)-11-((3-aminocyclobutyl)ethynyl)-1-(difluoromethoxy)-6-(methyl-d3)-6,7-dihydro-7,14-methanobenzo[f]benzo[4,5]imidazo[1,2-a][1,4]diazocin-5(14H)-one]	< 100
[2H]C([2H])([2H])N1C(=O)c2cccc(OC(F)F)c2[C@H]2C[C@@H]1c1nc3c(F)cc(C#CC4(C)COC4)cc3n12 [Example 145, (7R,14R)-1-(difluoromethoxy)-9-fluoro-6-(methyl-d3)-11-((3-methyloxetan-3-yl)ethynyl)-6,7-dihydro-7,14-methanobenzo[f]benzo[4,5]imidazo[1,2-a][1,4]diazocin-5(14H)-one]	< 100
[2H]C([2H])([2H])N1C(=O)c2cccc(OC(F)F)c2[C@H]2C[C@@H]1c1nc3ccc(C#CC4CCN(C(=O)C(C)(C)C)C4)cc3n12 (stereo partly drawn) [Example 204, (7R,14R)-1-(difluoromethoxy)-6-(methyl-d3)-11-((1-pivaloylpyrrolidin-3-yl)ethynyl)-6,7-dihydro-7,14-methanobenzo[f]benzo[4,5]imidazo[1,2-a][1,4]diazocin-5(14H)-one]	< 100
[2H]C([2H])([2H])N1C(=O)c2cccc(OC(F)F)c2[C@H]2C[C@@H]1c1nc3ccc(C#Cc4cncs4)cc3n12 [Example 32, (7R,14R)-1-(difluoromethoxy)-6-(methyl-d3)-11-(thiazol-5-ylethynyl)-6,7-dihydro-7,14-methanobenzo[f]benzo[4,5]imidazo[1,2-a][1,4]diazocin-5(14H)-one]	< 100
[2H]C([2H])([2H])N1C(=O)c2cccc(OC(F)F)c2[C@H]2C[C@@H]1c1nc3ccc(C#CC4CN(CC)C4)cc3n12 [Example 118, (7R,14R)-1-(difluoromethoxy)-11-((1-ethylazetidin-3-yl)ethynyl)-6-(methyl-d3)-6,7-dihydro-7,14-methanobenzo[f]benzo[4,5]imidazo[1,2-a][1,4]diazocin-5(14H)-one]	< 100
[2H]C([2H])([2H])N1C(=O)c2cccc(OC(F)F)c2[C@H]2C[C@@H]1c1nc3ccc(C#CCCC(C)O)cc3n12 (stereo partly drawn) [Example 207, (7R,14R)-1-(difluoromethoxy)-11-(5-hydroxyhex-1-yn-1-yl)-6-(methyl-d3)-6,7-dihydro-7,14-methanobenzo[f]benzo[4,5]imidazo[1,2-a][1,4]diazocin-5(14H)-one]	< 100
[2H]C([2H])([2H])N1C(=O)c2cccc(OC(F)F)c2[C@H]2C[C@@H]1c1nc3ccc(C#Cc4cnn(CCN)c4)cc3n12 [Example 15, (7R,14R)-11-((1-(2-aminoethyl)-1H-pyrazol-4-yl)ethynyl)-1-(difluoromethoxy)-6-(methyl-d3)-6,7-dihydro-7,14-methanobenzo[f]benzo[4,5]imidazo[1,2-a][1,4]diazocin-5(14H)-one]	< 100

Second part, the compound after the results:

IC50 [nM]	Compound
< 100	[2H]C([2H])([2H])N1C(=O)c2cccc(OC(F)F)c2[C@H]2C[C@@H]1c1nc3ccc(C#CC(=O)O)cc3n12 [Example 37, 3-((7R,14R)-1-(difluoromethoxy)-6-(methyl-d3)-5-oxo-5,6,7,14-tetrahydro-7,14-methanobenzo[f]benzo[4,5]imidazo[1,2-a][1,4]diazocin-11-yl)propiolic Acid]
< 100	[2H]C([2H])([2H])N1C(=O)c2cccc(OC(F)F)c2[C@H]2C[C@@H]1c1nc3ccc(C#CCCl)cc3n12 [Example 172, (7R,14R)-11-(3-chloroprop-1-yn-1-yl)-1-(difluoromethoxy)-6-(methyl-d3)-6,7-dihydro-7,14-methanobenzo[f]benzo[4,5]imidazo[1,2-a][1,4]diazocin-5(14H)-one]
100 to 1000	[2H]C([2H])([2H])N1C(=O)c2cccc(OC(F)F)c2[C@H]2C[C@@H]1c1nc3ccc(C#CC4(C)CN(C(=O)C5(C)CC5)C4)cc3n12 [Example 165, (7R,14R)-1-(difluoromethoxy)-6-(methyl-d3)-11-((3-methyl-1-(1-methylcyclopropane-1-carbonyl)azetidin-3-yl)ethynyl)-6,7-dihydro-7,14-methanobenzo[f]benzo[4,5]imidazo[1,2-a][1,4]diazocin-5(14H)-one]
100 to 1000	[2H]C([2H])([2H])N1C(=O)c2cccc(OC(F)F)c2[C@H]2C[C@@H]1c1nc3ccc(C#CC4CC4(F)F)cc3n12 (stereo partly drawn) [Example 196, (7R,14R)-11-((2,2-difluorocyclopropyl)ethynyl)-1-(difluoromethoxy)-6-(methyl-d3)-6,7-dihydro-7,14-methanobenzo[f]benzo[4,5]imidazo[1,2-a][1,4]diazocin-5(14H)-one]
< 100	[2H]C([2H])([2H])N1C(=O)c2cccc(OC(F)F)c2[C@H]2C[C@@H]1c1nc3ccc(C#CCCC4CC4)cc3n12 (single isomer, unassigned) [Example 137]
10000 to 30000	[2H]C([2H])([2H])N1C(=O)c2cccc(OC(F)F)c2[C@H]2C[C@@H]1c1nc3ccc(C#C[C@@H](C)O)cc3n12 [Example 179, (7R,14R)-1-(difluoromethoxy)-11-((R)-3-hydroxybut-1-yn-1-yl)-6-(methyl-d3)-6,7-dihydro-7,14-methanobenzo[f]benzo[4,5]imidazo[1,2-a][1,4]diazocin-5(14H)-one]
< 100	[2H]C([2H])([2H])N1C(=O)c2cccc(OC(F)F)c2[C@H]2C[C@@H]1c1nc3ccc(C#CC4(C)CNC4)cc3n12 [Example 158, (7R,14R)-1-(difluoromethoxy)-6-(methyl-d3)-11-((3-methylazetidin-3-yl)ethynyl)-6,7-dihydro-7,14-methanobenzo[f]benzo[4,5]imidazo[1,2-a][1,4]diazocin-5(14H)-one]
